From patent US20250074892A1, “CARBONYL BRIDGED HETEROCYCLIC COMPOUND, AND COMPOSITION AND APPLICATION THEREOF” (BEIJING SCITECH-MQ PHARMACEUTICALS LIMITED, priority 2022, published 2025)
Read-outs that look alike come from different tables or passages of the source.

Assays:
[1] = Rat PK&BBB (pharmacokinetics and brain penetration); format: in vivo, SD rats; conditions: for clearance: read-out: Cl—obs; for bioavailability: PO 30 mg/kg vs IV 3 mg/kg; for Kp at 2 h / concentration at 2 h / concentration at 0 h / concentration at 0.083 h / concentration at 0.25 h / concentration at 0.5 h / concentration at 1 h / concentration at 4 h / concentration at 7 h / concentration at 24 h: Sprague-Dawley; for Kp at 2 h: brain / whole blood, read-out: Brain/blood ratio
Procedure: (§1) In this assay, the pharmacokinetic characteristics and ability to penetrate the blood-brain barrier of the compounds of the present application were assayed after administration of some of the compounds of the present application to SD rats, CD-1 mice or beagle dogs by single oral administration and intravenous injection.
(§2) 1. Intravenous (IV) injection group: an appropriate amount of the assay compound was weighed, and completely dissolved in an appropriate volume of vehicle. The mixture was stirred, vortexed and/or sonicated. Once a solution was obtained, the vehicle was gradually added to a final volume to reach the target concentration. The solution was vortexed, and sonicated to obtain a homogeneous solution. The solution was filtered through a 0.22 m PVDF membrane.
as §2, with “2. Oral (PO)” for “1. Intravenous (IV) injection”, “solution.” for “solution. The solution was filtered through a 0.22 m PVDF membrane.”
(§3) Meanwhile, the IV group was not fasted and the PO group was fasted overnight (>12 hrs) and given food 2 hrs after drug administration. All animals had free access to water. The dosing regimen and pharmacokinetic sampling regimen are given in Table 10 and Table 11 below, respectively.
Rats were administered according to the above protocol, and blood and brain tissue samples were collected and processed at predetermined time points (collection and processing were performed according to conventional methods in the art).
(§4) The brain was weighed and homogenized by adding 4 times of ultrapure water. Six times volume of acetonitrile was added respectively to the whole blood samples and brain homogenate (20 times volume of acetonitrile was added to the whole blood sample of mouse PK). The mixture was vortexed for 1 min and then centrifuged at 4° C., 4500 rpm for 15 min. According to the instrument response, the supernatant was diluted with diluent and the sample was analyzed by LC/MS.
(§5) Pharmacokinetic parameters were calculated using WinNonlin software. The following pharmacokinetic parameters were calculated if appropriate plasma/whole blood drug concentration-time data were available: CL (clearance); Vd (apparent volume of distribution); T1/2 (elimination half-life time); Cmax (peak concentration); Tmax (time to peak); AUC (area under plasma drug concentration-time curve); MRT (mean retention time); F % (bioavailability).

HT29 cells = test: Inhibition of cell necrosis (CCK8 method), HT29 cells; format: cell-based, human; conditions: Homo sapiens, HT-29, 16 h, HT29, Human TNF-α/AT-406/Z-VAD-FMK, 16 hours, CCK8
Summary of the method: (§6)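 HT29 (1.2×10^4/well) and L929 (2.0×10^4/well) cells were pretreated 30 min with compound, 9-point 4-fold series from 10 μM in duplicate. Necrosis was induced with human TNF-α 20 ng/mL, AT-406 […] and Z-VAD-FMK 20 μM for 16 h (HT29), or murine TNF-α 20 ng/mL and Z-VAD-FMK 25 μM for 4-8 h (L929). CCK8 viability; IC50 from dose-effect curve.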

L929 cells = test: Inhibition of cell necrosis (CCK8 method), L929 cells; format: cell-based, mouse; conditions: Mus musculus, L929, L929, Murine TNF-α/Z-VAD-FMK, 4-8 hours, CCK8
Summary of the method: as §6

[2] = Beagle PK (pharmacokinetics); format: in vivo, beagle dogs; conditions: whole blood, Beagle dog
Procedure: as §1, §2
as §2, with “2. Oral (PO)” for “1. Intravenous (IV) injection”, “solution.” for “solution. The solution was filtered through a 0.22 m PVDF membrane.”
as §3, §4, §5

[3] = PO 30 mg/kg, 2 h after administration
[4] = rat, brain, po, 30 mg/kg, PO 30 mg/kg, 2 h after administration, read-out: Brain concentration
[5] = rat, whole blood, iv, 3 mg/kg, IV 3 mg/kg, read-out: Blood drug concentration
[6] = rat, whole blood, iv, 3 mg/kg, IV 3 mg/kg, 2 hr, read-out: Blood drug concentration
[7] = rat, whole blood, po, 30 mg/kg, PO 30 mg/kg, read-out: Blood drug concentration
[8] = rat, whole blood, po, 30 mg/kg, PO 30 mg/kg, 2 hr, read-out: Blood drug concentration
[9] = rat, whole blood, po, 30 mg/kg, PO 30 mg/kg, 24 hr, read-out: Blood drug concentration
[10] = rat, whole blood, po, 30 mg/kg, PO 30 mg/kg, whole blood, 2 h after administration, read-out: Blood drug concentration
[11] = IV 1 mg/kg, read-out: Blood drug concentration
[12] = PO 3 mg/kg, read-out: Blood drug concentration

## O=C(C1CCN(c2cc(-c3cc(OCCCO)ccc3F)ccn2)CC1)N1N=CC[C@H]1c1cc(F)cc(F)c1 (racemic) [Example 40]
[1]; SD, whole blood, IV 3 mg/kg
  AUC(0-inf): 592 ± 57 ng·h/mL
  AUC(0-t): 588 ± 56 ng·h/mL
  Vd: 7.84 ± 0.5 L/kg
  half-life: 1.07 ± 0.08 h
  clearance: 85 ± 8.4 mL/min/kg
[1]; SD, whole blood, PO 30 mg/kg
  AUC(0-inf): 1970 ± 768 ng·h/mL
  AUC(0-t): 1900 ± 868 ng·h/mL
  Cmax: 581 ± 228 ng/mL
  Tmax: 1.17 ± 0.76 h
  half-life: 2.84 ± 0.46 h
[1]; SD, whole blood
  bioavailability: 33.2 ± 13%
[1]; [3]
  Kp at 2 h: 1.13
[1]; [4]
  concentration at 2 h: 309 ng/g
[1]; [5]
  concentration at 0 h: 0 ng/mL
  concentration at 0.083 h: 865 ± 45 ng/mL
  concentration at 0.25 h: 496 ± 33 ng/mL
  concentration at 0.5 h: 295 ± 29 ng/mL
  concentration at 1 h: 119 ± 14 ng/mL
  concentration at 4 h: 13.2 ± 5 ng/mL
  concentration at 7 h: 2.37 ± 0.77 ng/mL
[1]; [6]
  concentration at 2 h: 61.9 ± 8.5 ng/mL
[1]; [7]
  concentration at 0 h: 0 ng/mL
  concentration at 0.25 h: 185 ± 86 ng/mL
  concentration at 0.5 h: 416 ± 92 ng/mL
  concentration at 1 h: 547 ± 248 ng/mL
  concentration at 4 h: 109 ± 99 ng/mL
  concentration at 7 h: 59.8 ± 34.9 ng/mL
[1]; [8]
  concentration at 2 h: 372 ± 258 ng/mL
[1]; [9]
  concentration at 24 h: 0.93 ng/mL
[1]; [10]
  concentration at 2 h: 274 ng/mL
HT29 cells
  IC50: ≤ 10 nM
L929 cells
  IC50: 10 to 50 nM

## CC(C)(O)COc1ccc(F)c(-c2ccnc(N3CCC(C(=O)N4N=CC[C@H]4c4cc(F)cc(F)c4)CC3)c2)c1 (racemic) [Example 42]
[1]; SD, rat, whole blood, iv, 3 mg/kg, IV 3 mg/kg, 24 hr, read-out: Blood drug concentration
  concentration at 24 hr: 19.9 ± 2.4 ng/mL
[1]; SD, whole blood, IV 3 mg/kg
  AUC(0-inf): 4140 ± 234 ng·h/mL
  AUC(0-t): 3990 ± 225 ng·h/mL
  Vd: 5.5 ± 0.38 L/kg
  half-life: 5.25 ± 0.14 h
  clearance: 12.1 ± 0.7 mL/min/kg
[1]; SD, whole blood, PO 30 mg/kg
  AUC(0-inf): 26500 ± 3060 ng·h/mL
  AUC(0-t): 24200 ± 2750 ng·h/mL
  Cmax: 1580 ± 205 ng/mL
  Tmax: 6 ± 1.73 h
  half-life: 6.33 ± 1.56 h
[1]; SD, whole blood
  bioavailability: 64 ± 7.4%
[1]; [3]
  Kp at 2 h: 0.915
[1]; [4]
  concentration at 2 h: 1970 ng/g
[1]; [5]
  concentration at 0 h: 0 ng/mL
  concentration at 0.083 h: 798 ± 302 ng/mL
  concentration at 0.25 h: 565 ± 166 ng/mL
  concentration at 0.5 h: 445 ± 70 ng/mL
  concentration at 1 h: 368 ± 53 ng/mL
  concentration at 4 h: 269 ± 25 ng/mL
  concentration at 7 h: 199 ± 23 ng/mL
[1]; [6]
  concentration at 2 h: 303 ± 39 ng/mL
[1]; [7]
  concentration at 0 h: 0 ng/mL
  concentration at 0.25 h: 266 ± 89 ng/mL
  concentration at 0.5 h: 654 ± 74 ng/mL
  concentration at 1 h: 1250 ± 67 ng/mL
  concentration at 4 h: 1380 ± 387 ng/mL
  concentration at 7 h: 1550 ± 153 ng/mL
[1]; [8]
  concentration at 2 h: 1300 ± 178 ng/mL
[1]; [9]
  concentration at 24 h: 237 ± 95 ng/mL
[1]; [10]
  concentration at 2 h: 2150 ng/mL
HT29 cells
  IC50: ≤ 10 nM
[2]; IV 1 mg/kg
  AUC(0-inf): 3380 ± 342 ng·h/mL
  AUC(0-t): 2920 ± 268 ng·h/mL
  Vd: 3.7 ± 1.05 L/kg
  half-life: 8.72 ± 3 h
[2]; [11]
  concentration at 0 hr: 0 ng/mL
  concentration at 0.25 hr: 451 ± 77 ng/mL
  concentration at 0.5 h: 390 ± 13 ng/mL
  concentration at 1 h: 253 ± 49 ng/mL
  concentration at 2 h: 236 ± 69 ng/mL
  concentration at 4 h: 176 ± 29 ng/mL
  concentration at 7 h: 133 ± 14 ng/mL
[2]; IV 1 mg/kg, 0.083 hr, read-out: Blood drug concentration
  concentration at 0.083 hr: 535 ± 62 ng/mL
[2]; IV 1 mg/kg, 24 hr, read-out: Blood drug concentration
  concentration at 24 hr: 32.9 ± 13.5 ng/mL
[2]; IV 1 mg/kg, read-out: Cl—obs
  clearance: 4.97 ± 0.51 mL/min/kg
[2]; PO 3 mg/kg
  AUC(0-inf): 18000 ± 939 ng·h/mL
  AUC(0-t): 11200 ± 2940 ng·h/mL
  Cmax: 1510 ± 396 ng/mL
  Tmax: 1.17 ± 0.76 h
  half-life: 18.1 ± 5 h
[2]; PO 3 mg/kg vs IV 1 mg/kg
  bioavailability: 127 ± 28%
[2]; [12]
  concentration at 0 hr: 0 ng/mL
  concentration at 0.25 hr: 645 ± 362 ng/mL
  concentration at 0.5 h: 1320 ± 406 ng/mL
  concentration at 1 h: 1170 ± 696 ng/mL
  concentration at 2 h: 1320 ± 320 ng/mL
  concentration at 4 h: 560 ± 231 ng/mL
  concentration at 7 h: 406 ± 145 ng/mL
[2]; PO 3 mg/kg, 24 hr, read-out: Blood drug concentration
  concentration at 24 h: 260 ± 19 ng/mL
L929 cells
  IC50: ≤ 10 nM
